Among the data in ChEMBL document CHEMBL1146279 (Bioorg Med Chem Lett, 2007) are IC50 values, retold here.

As a reminder, the IC50 is the midpoint of a concentration-inhibition curve. A low value points to greater potency in that assay.

For the test, the target named is T1, Tyrosine-protein kinase JAK3 (Homo sapiens, UniProt P52333).
T1 sequence (P52333 whole entry): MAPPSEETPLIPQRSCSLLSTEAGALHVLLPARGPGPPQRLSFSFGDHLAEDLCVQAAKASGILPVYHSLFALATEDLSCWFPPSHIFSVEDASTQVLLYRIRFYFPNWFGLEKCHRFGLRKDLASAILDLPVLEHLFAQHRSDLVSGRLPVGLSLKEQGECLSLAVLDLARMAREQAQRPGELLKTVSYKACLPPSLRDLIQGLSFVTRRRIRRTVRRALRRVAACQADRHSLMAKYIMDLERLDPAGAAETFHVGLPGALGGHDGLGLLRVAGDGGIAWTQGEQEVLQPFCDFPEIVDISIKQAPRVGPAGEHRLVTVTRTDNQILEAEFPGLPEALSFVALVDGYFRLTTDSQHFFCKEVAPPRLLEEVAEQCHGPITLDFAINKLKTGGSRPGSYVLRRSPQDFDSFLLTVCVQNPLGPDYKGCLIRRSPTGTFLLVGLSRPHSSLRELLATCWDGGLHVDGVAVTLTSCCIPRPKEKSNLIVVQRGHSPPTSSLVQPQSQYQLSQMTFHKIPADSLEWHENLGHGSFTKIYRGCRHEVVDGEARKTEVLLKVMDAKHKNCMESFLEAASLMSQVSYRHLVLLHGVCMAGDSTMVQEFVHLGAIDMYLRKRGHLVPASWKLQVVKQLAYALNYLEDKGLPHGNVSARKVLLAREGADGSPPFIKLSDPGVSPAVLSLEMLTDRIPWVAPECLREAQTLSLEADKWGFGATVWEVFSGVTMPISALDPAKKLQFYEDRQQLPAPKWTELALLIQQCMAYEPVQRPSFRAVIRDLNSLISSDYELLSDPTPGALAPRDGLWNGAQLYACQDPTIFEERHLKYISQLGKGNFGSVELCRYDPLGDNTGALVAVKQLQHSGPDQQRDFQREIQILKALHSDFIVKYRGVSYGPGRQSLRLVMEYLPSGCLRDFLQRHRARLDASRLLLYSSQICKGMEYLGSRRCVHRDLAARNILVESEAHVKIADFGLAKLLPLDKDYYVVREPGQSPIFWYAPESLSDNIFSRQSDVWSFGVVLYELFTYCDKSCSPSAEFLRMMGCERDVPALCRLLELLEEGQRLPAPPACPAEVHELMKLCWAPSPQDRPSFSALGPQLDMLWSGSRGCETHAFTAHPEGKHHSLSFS
In words: Inhibition of JAK3 expressed in Sf21 cells.
Turning to `O=C1NCc2c1c1c3ccccc3n3c1c1c2c2ccccc2n1CC(O)(CO)C3` (stereo not given), half-maximal inhibition (IC50) required 27 nM. That is a double-digit nanomolar value.

The compound `CN(C)Cc1ccc2c(c1)c1c3c(c4c5ccccc5n5c4c1n2CC(CO)C5)C(=O)NC3` (stereo not given) gave an IC50 of 250 nM. This IC50 lies about 9.3-fold higher than the previous one.

In turn, `O=C1NCc2c1c1c3cc(Br)ccc3n3c1c1c2c2ccccc2n1CC(CO)C3` (stereo not given) registered a half-inhibitory concentration (IC50) of 23.5 nM.

Compound `O=C1NCc2c1c1c3ccccc3n3c1c1c2c2ccccc2n1CC(O)C3` (stereo not given) yielded an IC50 of 142 nM.

`CC(C)OCc1ccc2c(c1)c1c3c(c4c5ccccc5n5c4c1n2CC(CO)C5)C(=O)NC3` (stereo not given) came in with an IC50 of 80 nM.

The compound `O=C1NCc2c1c1c3cc(CO)ccc3n3c1c1c2c2cc(CO)ccc2n1CC(CO)C3` (stereo not given) registered a half-inhibitory concentration (IC50) of 14 nM.

Compound `O=C1NCc2c1c1c3ccccc3n3c1c1c2c2ccccc2n1CC(CO)C3` (stereo not given) gave an IC50 of 17.5 nM.

Compound `O=C1NCc2c1c1c3ccccc3n3c1c1c2c2ccccc2n1CC(CO)(CO)C3` gave an IC50 of 13.5 nM.

For the compound `O=C1NCc2c1c1c3cc(/C=C/n4ccnc4)ccc3n3c1c1c2c2ccccc2n1CC(CO)C3` (stereo not given), the IC50 turned out to be 109 nM. Against the preceding compound, the IC50 is about 8.1-fold higher.

Regarding `O=C1NCc2c1c1c3cc(CN4CCOCC4)ccc3n3c1c1c2c2cc(CN4CCOCC4)ccc2n1CC(CO)C3` (stereo not given), the IC50 is > 5000 nM.

On to `CN(C)CCCNC(=O)/C=C/c1ccc2c(c1)c1c3c(c4c5ccccc5n5c4c1n2CC(CO)C5)CNC3=O` (stereo not given), for which the IC50 worked out at 237 nM.

On to `O=Cc1ccc2c(c1)c1c3c(c4c5cc(Br)ccc5n5c4c1n2CC(CO)C5)C(=O)NC3` (stereo not given), for which it took 15 nM to reach half-maximal inhibition (IC50). This IC50 lies about 16-fold lower than the previous one.

In turn, `O=C1NCc2c1c1c3cc(/C=C/Cn4ccnc4)ccc3n3c1c1c2c2ccccc2n1CC(CO)C3` (stereo not given) yielded an IC50 of 11 nM.

Compound `O=C1NCc2c1c1c3cc(/C=C/c4ccccn4)ccc3n3c1c1c2c2ccccc2n1CC(CO)C3` (stereo not given) came in with an IC50 of 354 nM.

The compound `O=C1NCc2c1c1c3ccccc3n3c1c1c2c2ccccc2n1CC(=C(CO)CO)C3` returned an IC50 of 36 nM.
